Assay results published in patent US20250051391A1, “PEPTIDE INHIBITORS AND METHODS FOR INHIBITING PROTEIN AGGREGATION IN NEURONS AND NEURODEGENERATIVE DISEASES” (THE GOVERNING COUNCIL OF THE UNIVERSITY OF TORONTO, priority 2021, published 2025).
Ends that are not written are not given here.

Test system: rat substantia nigra dopaminergic neurons
Assay: AAV V1S/SV2 a-syn oligomer rat model
Type: in vivo
Method: Adult female Sprague-Dawley rats (250-280 g; Envigo) were pair-housed in cages with wood bedding and had access to food and water ad libitum. The animal colony was maintained in a regular 12-h light/dark cycle. All procedures were approved by the University Health Network Animal Care Committee in accordance with guidelines and regulations set by the Canadian Council on Animal Care.
Animals were secured in a stereotactic frame under isoflurane/oxygen anaesthesia and ketoprofen (5 mg/kg) analgesia. The surgical site was shaved and sterilized with iodine/betadine prior to making a 2 cm incision along the midline. The scalp was exposed and a unilateral injection targeting the SN was performed at coordinates AP−5.2 mm, ML−2 mm and DV−7.4 mm with respect to the bregma as a point of reference. For each animal, a total volume of 2 μl of virus was injected at a rate of 0.5 μl/min using a microinjection pump and 10 μl Hamilton syringe with a 26-gauge needle. For A53T groups, 1 μl (low dose) or 1.34 μl (high dose) of AAV1/2-A53T a-syn (5.1×10^12 genomic particles/ml), 0.14 μl of AAV1/2-Pdpep1.3-GFP or scramble1.3-GFP (5.1×10^12 genomic particles/ml) and 0.86 μl or 0.52 μl of sterile PBS was injected; for EV groups, 1 μl (low dose) or 1.34 μl (high dose) of AAV1/2-EV (5.1×10^12 genomic particles/ml) replaced AAV1/2-A53T. For V1S+SV2 groups, 0.58 μl of AAV1/2-V1S (1.1×10^12 genomic particles/ml), 0.58 μl of AAV1/2-SV2 (1.1×10^12 genomic particles/ml), 0.14 μl of AAV1/2-Pdpep1.3-RFP or scramble1.3-RFP (5.1×10^12 genomic particles/ml) and 0.7 μl of sterile PBS was injected; for the YFP groups, 1.16 μl of AAV1/2-YFP (1.1×10^12 genomic particles/ml), 0.14 μl of AAV1/2-Pdpep1.3-RFP or scramble1.3-RFP (5.1×10^12 genomic particles/ml) and 0.7 μl of sterile PBS was injected. At the end of virus injection, the needle remained in place for 5 minutes before gradual removal.
Animals were uthanized by transcardial perfusion with heparinised saline under isoflurane/oxygen anaesthesia. Brains were then removed and the ventral part, including the ventral striatum, was snap frozen in liquid dry ice-cooled isopentane. […]
Immunofluorescence staining for a-syn, tyrosine hydroxylase and LAMP1 was performed by washing free-floating sections with PBS-T (0.2% Triton X-100) three times for 10 min each at room temperature. […] Sections were then mounted onto glass slides and allowed to dry and then fluorescence mounting medium (DAKO) was applied followed by cover slips.
Confocal images of immunofluorescent staining were acquired with a Zeiss LSM880 confocal microscope equipped with 405, 488, 555, and 639 nm laser lines. All images were taken within the linear range at constant gain and pinhole settings at optimal resolution settings determined by the software. […]

## DEEIERQLKALG [PDpep1.3]
6 weeks post-injection
  surviving dopaminergic neurons in the SN and terminals in the striatum (TH): increase in surviving dopaminergic neurons
  total a-syn positive area in the SN: decrease
6 weeks post-injection, vs Scramble1.3
  a-syn oligomer levels measured by YFP positive area in SN and striatum: significant reduction
rats, V1S/SV2, 6 weeks post-injection, AAV-expressed RFP peptide
  YFP mean fluorescence intensity in SN cells positive for TH and RFP: 0.063±0.0167 RFU
